One test concerns the target T1, S. pneumoniae FabK (Streptococcus pneumoniae, UniProt Q9FBC5, T318A).
T1 construct: made in house
Put plainly: FabK enoyl-ACP reductase assay (NADH oxidation at 340 nm). The conditions noted are these: for inhibition of FabK (in words): 25 uM crotonoyl ACP, 50 uM NADH, 1.25 nM enzyme. It counts as biochemical. The protocol:
FabK catalyses the reduction of enoyl-ACPs with the concommitant oxidation of NADH. Crotonoyl-ACP can be prepared as described below. The reduction of crotonoyl-ACP to butyryl-ACP can be monitored by following the change in absorbance at 340 nm as NADH is oxidised.
Assays were carried out in Costar 3696 half-area plates in a final assay volume of 150 ul on a Spectramax platereader. Substrates, NADH and crotonoyl ACP, were incubated with FabK enzyme in 100 mM N-[2-acetamido]-2 irminodiacetic acid (ADA), pH 6.5, 100 mM NH4Cl, 4% glycerol at 30° C. and the reaction monitored at 340 nm. This assaying can also be performed using crotonyl CoA, NADPH or an NADH analogue as a substrate.
Using the above assay, compounds can be tested for inhibition of FabK. 30 ul of a candidate compounds is added to a well of the plate. 30 ul of a 250 uM stock of NADH is then added to the well. 60 ul of a 67.5 uM stock of Crotonoyl ACP is added to the well. The plate is incubated at 30° C. for 5 min. 30 ul of a 6.25 nM stock of enzyme is then added to the well (also preincubated at 30° C.) to initiate the reaction. The plate is then monitored at A340 nm for 30 min at 30° C. Positive controls are reactions without compound. Negative controls are reactions without enzyme and without compound. Final concentrations in the assay mixture are 25 uM crotonoyl ACP, 50 uM NADH, 1.25 nM enzyme.

For the next test, the system named is FabI. As to the kind of experiment: FabI assay, enzyme source not stated. It counts as biochemical. The procedure:
(§1) FabI catalyses the reduction of enoyl-ACPs with the concommitant oxidation of NAD(P)H. Crotonoyl-ACP can be prepared as described in patent applications numbered PCT/US00/12104 and EP1997000306506. The reduction of enoyl-ACPs can be monitored by following the change in absorbance at 340 nm as NADH is oxidised. Enoyl ACPs (eg crotonoyl-ACP) can be replaced by enoyl-CoAs (eg crotonoyl-CoA)
(§2) Assays were carried out in Costar 3696 half-area plates in a final assay volume of 150 ul on a Spectramax platereader. Substrates, NADH and crotonoyl ACP, were incubated with FabI enzyme in 100 mM N-[2-acetamido]-2 iminodiacetic acid (ADA), pH 6.5, 4% glycerol at 30° C. and the reaction monitored at 340 nm. This assaying can also be performed using crotonyl CoA, NADPH or an NADH analogue as a substrate, or using a substrate suitable for FabK, such as those described above.
(§3) Using the above assay, compounds can be tested for inhibition of FabI. 30 ul of a candidate compounds is added to a well of the plate. 30 ul of a 250 uM stock of NADH is then added to the well. 60 ul of a 67.5 uM stock of Crotonoyl ACP is added to the well. The plate is incubated at 30° C. for 5 min. 30 ul of a 6.25 nM stock of enzyme is then added to the well (also preincubated at 30° C.) to initiate the reaction. The plate is then monitored at A340 nm for 30 min at 30° C. Positive controls are reactions without compound. […]

For the next test, the target named is S. aureus FabI (Staphylococcus aureus, UniProt Q6GI75). Put plainly: FabI assay, S. aureus enzyme. The class given is biochemical. The procedure:
as §1, §2, §3

In another test the target is E. coli FabI (Escherichia coli, UniProt P0AEK4). As to the kind of experiment: FabI assay, E. coli enzyme. It counts as biochemical. The procedure:
as §1, §2, §3

For another test, the system named is S. aureus Oxford. As to the kind of experiment: Antibacterial MIC. It counts as cell-based. The conditions noted are these: Staphylococcus aureus, read-out: Antibacterial MIC.
A further test concerns S. aureus WCUH29. Put plainly: Antibacterial MIC. The class given is cell-based. To be noted: Staphylococcus aureus.
The test system of a further test is E. faecalis 1. As to the kind of experiment: Antibacterial MIC. It counts as cell-based. To be noted: Enterococcus faecalis, 1, read-out: Antibacterial MIC.
In a further test the test system is E. faecalis 7. Put plainly: Antibacterial MIC. It counts as cell-based.
The next test has as its system H. influenzae Q1. As to the kind of experiment: Antibacterial MIC. It counts as cell-based. To be noted: Haemophilus influenzae.
The next test concerns H. influenzae NEMC1. As to the kind of experiment: Antibacterial MIC. It counts as cell-based. To be noted: Haemophilus influenzae.
The subject of the next test is M. catarrhalis. Put plainly: Antibacterial MIC. The class given is cell-based. To be noted: Moraxella catarrhalis, read-out: Antibacterial MIC.
The next test concerns S. pneumoniae 1629. As to the kind of experiment: Antibacterial MIC. The class given is cell-based.
For another test, the system named is S. pneumoniae N1387. As to the kind of experiment: Antibacterial MIC. It counts as cell-based. To be noted: Streptococcus pneumoniae.
Another test concerns S. pneumoniae ERY2. As to the kind of experiment: Antibacterial MIC. It counts as cell-based. To be noted: Streptococcus pneumoniae, ERY2, read-out: Antibacterial MIC.
The next test concerns E. coli AcrAB^−. As to the kind of experiment: Antibacterial MIC. It counts as cell-based. The conditions noted are these: Escherichia coli, read-out: Antibacterial MIC.

Values after ≈ are worked out from the molar mass of the structure shown. Where two headings read alike, the source gives them in different places.

The text below walks through data of patent publication US7048926B2, “Methods of agonizing and antagonizing FabK” (priority 2000, dated 2006).

As usually defined, the IC50 is the point on the concentration scale where inhibition reaches its midpoint. A higher IC50 goes with lower potency.

T1 sequence (Q9FBC5 whole entry T318A): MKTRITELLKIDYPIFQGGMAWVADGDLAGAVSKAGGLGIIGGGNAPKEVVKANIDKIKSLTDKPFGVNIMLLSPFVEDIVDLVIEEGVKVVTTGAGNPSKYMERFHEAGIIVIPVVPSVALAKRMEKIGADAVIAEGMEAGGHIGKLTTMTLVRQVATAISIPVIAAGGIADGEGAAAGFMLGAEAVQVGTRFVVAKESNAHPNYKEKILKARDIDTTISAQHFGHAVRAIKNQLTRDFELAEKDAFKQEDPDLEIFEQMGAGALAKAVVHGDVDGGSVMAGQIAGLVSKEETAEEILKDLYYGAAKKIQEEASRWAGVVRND
Sequence of S. aureus FabI (Q6GI75 whole entry): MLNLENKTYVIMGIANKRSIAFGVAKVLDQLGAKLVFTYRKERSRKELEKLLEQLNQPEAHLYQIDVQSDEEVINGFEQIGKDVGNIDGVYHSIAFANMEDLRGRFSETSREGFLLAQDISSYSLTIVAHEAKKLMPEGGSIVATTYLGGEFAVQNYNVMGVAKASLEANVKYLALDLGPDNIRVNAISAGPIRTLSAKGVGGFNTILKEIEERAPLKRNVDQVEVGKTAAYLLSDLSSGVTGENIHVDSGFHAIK
Sequence of E. coli FabI (P0AEK4 whole entry): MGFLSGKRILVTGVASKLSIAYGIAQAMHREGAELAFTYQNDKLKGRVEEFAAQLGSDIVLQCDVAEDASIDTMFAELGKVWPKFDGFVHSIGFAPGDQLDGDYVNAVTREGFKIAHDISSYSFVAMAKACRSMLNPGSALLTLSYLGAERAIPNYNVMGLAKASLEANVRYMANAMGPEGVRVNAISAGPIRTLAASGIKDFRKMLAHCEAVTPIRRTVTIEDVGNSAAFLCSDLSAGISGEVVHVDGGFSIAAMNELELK

On to `Cc1[nH]c2ccccc2c1CN(C)C(=O)/C=C/c1cnc2c(c1)CCC(=O)N2` [Formula II], for which the “inhibition of FabK (in words)” value against S. pneumoniae FabK is “inhibit”. The “inhibition of FabI (in words)” value in the test with FabI is “inhibit”.
With `CN(Cc1cn(C)c2ccccc12)C(=O)/C=C/c1cnc2c(c1)CCC(=O)N2` [Formula I], at S. pneumoniae FabK, the “inhibition of FabK (in words)” value was “inhibit”. Moreover, the “inhibition of FabI (in words)” value with FabI is “inhibit”.
For the compound `Cl.N` [NH4^+], the “activation of FabK reaction over the reaction with no monovalent cations” value at S. pneumoniae FabK (NH4^+ at 100 mM) is “about 300 fold”.
Regarding `CN(Cc1cn(C)c2ccccc12)C(=O)/C=C/c1cnc2c(c1)CCC(=O)N2` [SB-611113], the values for the half-maximal inhibitory concentration (IC50) against S. pneumoniae FabK, on S. aureus FabI and at E. coli FabI were 5.7 µM, 0.1 µM and < 0.06 µM, respectively. For the same compound, the MIC in the test with S. aureus Oxford is ≤ 0.06 µg/mL; in the test on S. aureus WCUH29 (WCUH29, read-out: Antibacterial MIC), ≤ 0.06 µg/mL; in the test with E. faecalis 1, 16 µg/mL (≈ 42.7 µM); in the test on E. faecalis 7 (Enterococcus faecalis, 7, read-out: Antibacterial MIC), 16 µg/mL (≈ 42.7 µM); with H. influenzae Q1 (Q1, read-out: Antibacterial MIC), 16 µg/mL (≈ 42.7 µM); with H. influenzae NEMC1 (NEMC1, read-out: Antibacterial MIC) it was 32 µg/mL (≈ 85.5 µM). The MIC was ≤ 0.06 µg/mL in the test on M. catarrhalis; 8 µg/mL (≈ 21.4 µM) in the test with S. pneumoniae 1629 (Streptococcus pneumoniae, 1629, read-out: Antibacterial MIC); 16 µg/mL (≈ 42.7 µM) in the test on S. pneumoniae N1387 (N1387, read-out: Antibacterial MIC); 8 µg/mL (≈ 21.4 µM) in the test with S. pneumoniae ERY2; 8 µg/mL (≈ 21.4 µM) in the test with E. coli AcrAB^−.
At S. pneumoniae FabK, `Cc1[nH]c2ccccc2c1CN(C)C(=O)/C=C/c1cnc2c(c1)CCC(=O)N2` [SB-641197] registered an IC50 of 5.2 µM. The MIC is ≤ 0.06 µg/mL in the test on S. aureus Oxford; ≤ 0.06 µg/mL in the test with S. aureus WCUH29 (S. aureus WCUH29, read-out: Antibacterial MIC); 16 µg/mL (≈ 42.7 µM) in the test with E. faecalis 1; 16 µg/mL (≈ 42.7 µM) in the test with E. faecalis 7 (Enterococcus faecalis, E. faecalis 7, read-out: Antibacterial MIC); 1 µg/mL (≈ 2.67 µM) with H. influenzae Q1 (H. influenzae Q1, read-out: Antibacterial MIC); 2 µg/mL (≈ 5.34 µM) in the test on H. influenzae NEMC1 (H. influenzae NEMC1, read-out: Antibacterial MIC). The MIC with M. catarrhalis (M. catarrhalis) is ≤ 0.06 µg/mL; with S. pneumoniae 1629 (Streptococcus pneumoniae, S. pneumoniae 1629, read-out: Antibacterial MIC) it was 8 µg/mL (≈ 21.4 µM); in the test on S. pneumoniae N1387 (S. pneumoniae N1387, read-out: Antibacterial MIC), 16 µg/mL (≈ 42.7 µM); in the test with S. pneumoniae ERY2, 8 µg/mL (≈ 21.4 µM); with E. coli AcrAB^−, 0.5 µg/mL (≈ 1.34 µM).
